Results: ChEMBL document CHEMBL1201862, “PubChem BioAssay data set” (2004)
Activity calls are given as the source filed them. Unless noted, the calls are words filed in the database; no cut-off is given here.

Assays:
[1] = molecular target: Lysine-specific demethylase 4A (Homo sapiens, UniProt O75164); experiment: JMJD2A histone demethylase inhibitors, dose response, selectivity assay for GASC-1 inhibitor project, biochemical, DELFIA europium, cherry-picked samples (AID 488840)
[2] = molecular target: Lysine-specific demethylase 4C (Homo sapiens, UniProt Q9H3R0); experiment: GASC-1 (JMJD2C) histone demethylase inhibitors, dose response, biochemical, DELFIA europium, cherry-picked samples (AID 488835); type: functional
[3] = molecular target: Trypsin (Sus scrofa, UniProt P00761); experiment: porcine trypsin inhibitors, dose response, selectivity assay for Rce1 protease inhibitor project, biochemical, quenched peptide fluorescence, cherry-pick (AID 488789)
[4] = molecular target: CAAX prenyl protease 1 (Saccharomyces cerevisiae S288c, UniProt P47154); experiment: Ste24 protease inhibitors, dose response, biochemical, S. cerevisiae, plate reader, cherry-pick (AID 488815)
[5] = molecular target: T1, CAAX prenyl protease 2 (Saccharomyces cerevisiae S288c, UniProt Q03530); type: biochemical
T1 sequence (Q03530 whole entry): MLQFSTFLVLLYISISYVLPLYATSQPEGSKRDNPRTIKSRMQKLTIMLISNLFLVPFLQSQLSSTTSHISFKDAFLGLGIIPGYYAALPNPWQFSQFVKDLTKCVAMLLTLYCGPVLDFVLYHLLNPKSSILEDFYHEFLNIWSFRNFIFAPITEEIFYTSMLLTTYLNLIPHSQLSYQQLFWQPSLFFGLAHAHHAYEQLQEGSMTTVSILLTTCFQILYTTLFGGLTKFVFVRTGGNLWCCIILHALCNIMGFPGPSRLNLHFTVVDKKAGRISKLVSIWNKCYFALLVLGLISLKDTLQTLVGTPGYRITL

[6] = molecular target: Glycogen synthase kinase-3 beta (Homo sapiens, UniProt P49841); experiment: Inhibition of Human GSK-3 beta Activity Measured in Biochemical System Using Microfluidics - 2063-05_Inhibitor_Dose_DryPowder_Activity. [Related pubchem assays (depositor defined):AID2709]
[7] = test system: HEK293; experiment: cells; type: functional, cell-based; settings: Homo sapiens
[8] = test system: HEK293; experiment: NOD2 signaling inhibitors in MDP-stimulated cells, cell-based, uHTS, luminescence (AID 2001); type: functional; settings: Homo sapiens
[9] = test system: HEK293; experiment: cells; type: functional, cell-based; settings: Homo sapiens; remark: listed apart in the source
[10] = molecular target: Nucleotide-binding oligomerization domain-containing protein 2 (Homo sapiens, UniProt Q9HC29); experiment: NOD2 signaling inhibitors, cell-based, luminescence, uHTS, HEK293 (AID 1566); type: functional
[11] = test system: HEK293; experiment: NOD1 signaling inhibitors, primary screen, cell-based, luminescence, uHTS (AID 1578); type: functional; settings: Homo sapiens
[12] = test system: HEK293; experiment: cells; type: functional, cell-based; settings: Homo sapiens; remark: listed apart in the source
[13] = test system: A-375; experiment: A375 melanoma cell viability reduction, dose response, counter-screen for MITF modulator project, cherry-pick samples, set 2 (AID 540335); type: functional, cell-based; settings: Homo sapiens
[14] = test system: A-375; experiment: MITF: Counter assay: A375 proliferation Measured in Cell-Based System Using Plate Reader - 2084-03_Inhibitor_Dose_DryPowder_Activity. [Related pubchem assays (depositor defined):AID488944]; type: functional; settings: Homo sapiens
[15] = test system: NIH3T3; experiment: cytotoxicity in NIH-3T3 fibroblasts, dose response, cytotoxicity control for antifungal drug resistance project, cell-based, Alamar Blue, fluconazole, dry powder (AID 488809); type: functional; settings: Mus musculus
[16] = test system: Candida albicans; experiment: single-agent growth inhibition of C. albicans, dose response, counter-screen for antifungal drug resistance project, C. albicans CaCi-2, dry powder (AID 488802); type: functional, organism-based
[17] = molecular target: T2, Heat shock factor protein 1 (Mus musculus, UniProt P38532); experiment: HSF1 potentiators in luciferase reporter cells, confirmation, cell-based, NIH3T3, luminescence, dose retest (AID 435004); type: functional;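 further: stress induced by proteasome inhibitor MG132 added 30 min after compound; luciferase reporter driven by HSF1 response element in NIH3T3 cells; actives raise luminescence as potentiators of the MG132 stress response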
T2 sequence (P38532 whole entry): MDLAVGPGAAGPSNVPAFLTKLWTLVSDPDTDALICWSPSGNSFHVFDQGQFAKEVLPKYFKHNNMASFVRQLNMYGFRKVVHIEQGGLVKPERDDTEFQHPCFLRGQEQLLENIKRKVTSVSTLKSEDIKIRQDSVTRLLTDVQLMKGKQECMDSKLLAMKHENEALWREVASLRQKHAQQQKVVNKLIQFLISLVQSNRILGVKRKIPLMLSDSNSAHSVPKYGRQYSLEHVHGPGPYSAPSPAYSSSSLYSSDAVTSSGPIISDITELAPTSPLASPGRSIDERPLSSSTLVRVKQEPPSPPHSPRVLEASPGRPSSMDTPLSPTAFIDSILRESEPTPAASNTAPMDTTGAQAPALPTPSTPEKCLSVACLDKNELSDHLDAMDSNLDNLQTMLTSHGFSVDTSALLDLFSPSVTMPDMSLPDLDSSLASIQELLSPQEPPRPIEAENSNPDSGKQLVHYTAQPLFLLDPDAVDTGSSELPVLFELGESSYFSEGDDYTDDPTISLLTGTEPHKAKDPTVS

[18] = molecular target: T3, Tyrosine-protein phosphatase non-receptor type 22 (Homo sapiens, UniProt Q9Y2R2); type: functional
[19] = molecular target: T3, Tyrosine-protein phosphatase non-receptor type 22; type: functional; remark: listed apart in the source
[20] = molecular target: T4, Tyrosine-protein phosphatase non-receptor type 7 (Homo sapiens, UniProt P35236); type: functional
T4 sequence (P35236 whole entry): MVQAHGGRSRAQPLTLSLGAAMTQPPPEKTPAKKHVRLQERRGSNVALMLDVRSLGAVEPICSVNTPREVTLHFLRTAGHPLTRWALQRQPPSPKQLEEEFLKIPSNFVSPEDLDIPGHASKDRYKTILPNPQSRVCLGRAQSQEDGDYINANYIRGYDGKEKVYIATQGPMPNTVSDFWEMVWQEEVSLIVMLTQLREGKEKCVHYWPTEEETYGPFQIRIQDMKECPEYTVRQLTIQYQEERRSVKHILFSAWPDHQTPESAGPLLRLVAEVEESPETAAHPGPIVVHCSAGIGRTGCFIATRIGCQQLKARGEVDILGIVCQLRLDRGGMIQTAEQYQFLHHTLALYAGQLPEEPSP

[21] = Luminescence Cell-Based Dose Response Follow up to Identify Inhibitors of Platelet Dense Granule Release. [Related pubchem assays (depositor defined):AID1663, AID1678, AID1889, AID2519]; type: functional
[22] = blockers of SFLLRN-triggered platelet ATP secretion – cell-based, human platelets, luminescence, dry powder, dose response (AID 493100); type: functional
[23] = molecular target: UDP-galactopyranose mutase (Mycobacterium tuberculosis, UniProt P9WIQ1); experiment: Inhibitors of Mycobacterium tuberculosis UDP-galactopyranose mutase (UGM) enzyme Measured in Biochemical System Using Plate Reader - 2105-02_Inhibitor_Dose_CherryPick_Activity. [Related pubchem assays (depositor defined):AID504439]
[24] = Fluorescence polarization-based biochemical high throughput dose response assay for activators of the Protein Kinase A-R1A (PKA-R1A) complex. [Related pubchem assays (depositor defined):AID504704, AID504707, AID504799, AID504800]
[25] = Fluorescence polarization-based biochemical high throughput dose response assay for activators of the Protein Kinase A-R2B (PKA-R2B) complex. [Related pubchem assays (depositor defined):AID504700, AID504704, AID504796, AID504797]

T3 sequence (Q9Y2R2 whole entry): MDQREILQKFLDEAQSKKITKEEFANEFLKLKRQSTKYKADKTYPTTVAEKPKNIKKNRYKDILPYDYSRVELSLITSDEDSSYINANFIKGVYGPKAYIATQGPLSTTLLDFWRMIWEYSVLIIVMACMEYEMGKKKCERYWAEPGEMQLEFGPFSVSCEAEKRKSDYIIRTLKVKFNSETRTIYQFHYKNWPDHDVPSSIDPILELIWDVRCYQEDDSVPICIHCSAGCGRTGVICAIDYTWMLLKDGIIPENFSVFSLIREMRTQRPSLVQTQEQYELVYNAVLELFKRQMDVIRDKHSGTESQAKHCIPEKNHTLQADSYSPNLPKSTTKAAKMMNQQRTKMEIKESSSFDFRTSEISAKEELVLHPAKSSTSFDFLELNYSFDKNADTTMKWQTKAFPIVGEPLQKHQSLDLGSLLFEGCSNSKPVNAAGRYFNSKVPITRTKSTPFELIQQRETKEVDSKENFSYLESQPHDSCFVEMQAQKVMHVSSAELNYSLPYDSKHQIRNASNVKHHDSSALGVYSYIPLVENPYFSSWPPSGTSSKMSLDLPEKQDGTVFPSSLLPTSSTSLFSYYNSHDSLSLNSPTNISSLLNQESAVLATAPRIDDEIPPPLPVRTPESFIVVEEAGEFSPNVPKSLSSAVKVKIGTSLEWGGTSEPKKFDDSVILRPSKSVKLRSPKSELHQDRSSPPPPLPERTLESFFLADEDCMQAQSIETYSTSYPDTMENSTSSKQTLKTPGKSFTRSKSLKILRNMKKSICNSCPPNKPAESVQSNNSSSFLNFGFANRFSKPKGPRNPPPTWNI
Sequence of Trypsin (P00761 whole entry): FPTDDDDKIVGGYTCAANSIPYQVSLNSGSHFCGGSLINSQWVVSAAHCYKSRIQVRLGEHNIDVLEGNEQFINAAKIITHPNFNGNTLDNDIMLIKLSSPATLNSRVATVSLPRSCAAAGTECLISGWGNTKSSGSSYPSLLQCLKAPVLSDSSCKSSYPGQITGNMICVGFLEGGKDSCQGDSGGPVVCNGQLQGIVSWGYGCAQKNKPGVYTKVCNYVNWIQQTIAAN
Sequence of Lysine-specific demethylase 4A (O75164 whole entry): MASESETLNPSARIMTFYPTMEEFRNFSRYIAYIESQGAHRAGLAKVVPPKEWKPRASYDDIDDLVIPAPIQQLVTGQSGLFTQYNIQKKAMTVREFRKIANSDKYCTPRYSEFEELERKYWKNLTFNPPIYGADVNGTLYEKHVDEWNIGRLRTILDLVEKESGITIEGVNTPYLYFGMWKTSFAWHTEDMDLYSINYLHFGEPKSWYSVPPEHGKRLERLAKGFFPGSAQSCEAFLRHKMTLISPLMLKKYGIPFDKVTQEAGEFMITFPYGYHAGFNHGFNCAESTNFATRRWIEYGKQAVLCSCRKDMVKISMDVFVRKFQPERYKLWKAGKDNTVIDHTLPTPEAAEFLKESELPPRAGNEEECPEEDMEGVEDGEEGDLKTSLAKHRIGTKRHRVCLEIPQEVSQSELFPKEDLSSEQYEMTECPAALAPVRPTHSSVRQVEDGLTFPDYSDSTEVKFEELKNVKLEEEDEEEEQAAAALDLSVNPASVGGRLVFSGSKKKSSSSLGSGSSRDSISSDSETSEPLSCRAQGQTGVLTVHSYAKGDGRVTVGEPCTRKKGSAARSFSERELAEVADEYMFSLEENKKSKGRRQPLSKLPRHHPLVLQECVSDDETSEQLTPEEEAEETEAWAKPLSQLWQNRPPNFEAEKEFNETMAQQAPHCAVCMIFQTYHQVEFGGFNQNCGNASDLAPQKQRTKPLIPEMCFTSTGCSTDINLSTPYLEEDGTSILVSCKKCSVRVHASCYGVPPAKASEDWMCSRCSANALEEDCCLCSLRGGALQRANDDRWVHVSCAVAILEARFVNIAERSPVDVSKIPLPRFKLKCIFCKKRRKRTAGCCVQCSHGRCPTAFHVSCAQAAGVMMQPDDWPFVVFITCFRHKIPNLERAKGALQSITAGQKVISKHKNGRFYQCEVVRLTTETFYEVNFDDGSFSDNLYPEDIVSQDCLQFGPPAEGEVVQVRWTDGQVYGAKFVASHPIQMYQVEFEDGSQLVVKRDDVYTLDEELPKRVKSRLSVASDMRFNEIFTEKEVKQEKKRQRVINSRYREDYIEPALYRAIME
Sequence of Glycogen synthase kinase-3 beta (P49841 whole entry): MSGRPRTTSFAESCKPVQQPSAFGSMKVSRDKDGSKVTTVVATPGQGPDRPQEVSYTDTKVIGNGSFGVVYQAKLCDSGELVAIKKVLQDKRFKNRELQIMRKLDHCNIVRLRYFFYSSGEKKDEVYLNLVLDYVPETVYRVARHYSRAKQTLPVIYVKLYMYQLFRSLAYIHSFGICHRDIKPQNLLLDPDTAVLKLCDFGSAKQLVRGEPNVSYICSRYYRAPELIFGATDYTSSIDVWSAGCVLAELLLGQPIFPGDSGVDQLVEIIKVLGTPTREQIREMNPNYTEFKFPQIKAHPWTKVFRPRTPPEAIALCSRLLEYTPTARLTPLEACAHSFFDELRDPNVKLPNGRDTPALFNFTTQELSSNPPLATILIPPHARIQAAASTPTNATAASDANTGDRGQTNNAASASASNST
Sequence of Nucleotide-binding oligomerization domain-containing protein 2 (Q9HC29 whole entry, the tested form may be a part): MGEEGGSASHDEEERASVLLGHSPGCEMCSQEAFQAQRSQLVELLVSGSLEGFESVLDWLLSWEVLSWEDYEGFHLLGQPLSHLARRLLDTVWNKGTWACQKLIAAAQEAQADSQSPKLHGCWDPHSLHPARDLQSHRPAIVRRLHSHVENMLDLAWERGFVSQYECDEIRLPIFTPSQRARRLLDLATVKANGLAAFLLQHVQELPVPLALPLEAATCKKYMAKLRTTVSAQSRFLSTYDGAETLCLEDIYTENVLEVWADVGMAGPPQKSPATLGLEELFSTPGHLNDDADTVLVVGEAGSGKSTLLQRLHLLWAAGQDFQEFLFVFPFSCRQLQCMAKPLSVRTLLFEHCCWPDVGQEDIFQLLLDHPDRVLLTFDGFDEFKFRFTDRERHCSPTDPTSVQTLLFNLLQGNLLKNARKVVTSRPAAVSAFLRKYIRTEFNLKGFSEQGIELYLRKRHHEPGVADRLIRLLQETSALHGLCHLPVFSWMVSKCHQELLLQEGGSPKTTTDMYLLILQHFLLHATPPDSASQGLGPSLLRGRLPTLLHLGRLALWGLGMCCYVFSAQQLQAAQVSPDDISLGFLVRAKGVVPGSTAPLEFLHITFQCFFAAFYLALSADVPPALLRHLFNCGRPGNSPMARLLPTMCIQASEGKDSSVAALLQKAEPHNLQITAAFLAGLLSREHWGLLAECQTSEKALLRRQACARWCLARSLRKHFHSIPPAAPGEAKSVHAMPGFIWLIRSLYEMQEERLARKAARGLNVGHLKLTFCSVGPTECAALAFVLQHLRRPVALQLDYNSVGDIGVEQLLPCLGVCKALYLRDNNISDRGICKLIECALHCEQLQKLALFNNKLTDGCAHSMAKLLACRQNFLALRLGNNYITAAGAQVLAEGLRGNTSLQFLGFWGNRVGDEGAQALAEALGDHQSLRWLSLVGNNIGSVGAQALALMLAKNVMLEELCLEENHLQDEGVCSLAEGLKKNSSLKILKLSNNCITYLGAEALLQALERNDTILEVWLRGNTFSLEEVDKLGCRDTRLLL
Sequence of CAAX prenyl protease 1 (P47154 whole entry): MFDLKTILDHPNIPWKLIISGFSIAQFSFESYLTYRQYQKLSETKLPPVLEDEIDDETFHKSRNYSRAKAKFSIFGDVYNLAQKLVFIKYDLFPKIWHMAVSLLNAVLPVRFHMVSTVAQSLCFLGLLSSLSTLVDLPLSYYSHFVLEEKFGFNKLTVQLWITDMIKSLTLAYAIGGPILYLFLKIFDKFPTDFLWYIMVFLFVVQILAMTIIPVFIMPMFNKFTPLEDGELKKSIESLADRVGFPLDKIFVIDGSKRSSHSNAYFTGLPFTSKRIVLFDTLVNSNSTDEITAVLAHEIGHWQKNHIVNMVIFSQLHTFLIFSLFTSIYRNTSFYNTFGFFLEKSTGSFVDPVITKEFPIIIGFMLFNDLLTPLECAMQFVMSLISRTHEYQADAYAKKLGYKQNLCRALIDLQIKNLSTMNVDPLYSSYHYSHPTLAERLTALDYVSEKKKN
Sequence of Lysine-specific demethylase 4C (Q9H3R0 whole entry): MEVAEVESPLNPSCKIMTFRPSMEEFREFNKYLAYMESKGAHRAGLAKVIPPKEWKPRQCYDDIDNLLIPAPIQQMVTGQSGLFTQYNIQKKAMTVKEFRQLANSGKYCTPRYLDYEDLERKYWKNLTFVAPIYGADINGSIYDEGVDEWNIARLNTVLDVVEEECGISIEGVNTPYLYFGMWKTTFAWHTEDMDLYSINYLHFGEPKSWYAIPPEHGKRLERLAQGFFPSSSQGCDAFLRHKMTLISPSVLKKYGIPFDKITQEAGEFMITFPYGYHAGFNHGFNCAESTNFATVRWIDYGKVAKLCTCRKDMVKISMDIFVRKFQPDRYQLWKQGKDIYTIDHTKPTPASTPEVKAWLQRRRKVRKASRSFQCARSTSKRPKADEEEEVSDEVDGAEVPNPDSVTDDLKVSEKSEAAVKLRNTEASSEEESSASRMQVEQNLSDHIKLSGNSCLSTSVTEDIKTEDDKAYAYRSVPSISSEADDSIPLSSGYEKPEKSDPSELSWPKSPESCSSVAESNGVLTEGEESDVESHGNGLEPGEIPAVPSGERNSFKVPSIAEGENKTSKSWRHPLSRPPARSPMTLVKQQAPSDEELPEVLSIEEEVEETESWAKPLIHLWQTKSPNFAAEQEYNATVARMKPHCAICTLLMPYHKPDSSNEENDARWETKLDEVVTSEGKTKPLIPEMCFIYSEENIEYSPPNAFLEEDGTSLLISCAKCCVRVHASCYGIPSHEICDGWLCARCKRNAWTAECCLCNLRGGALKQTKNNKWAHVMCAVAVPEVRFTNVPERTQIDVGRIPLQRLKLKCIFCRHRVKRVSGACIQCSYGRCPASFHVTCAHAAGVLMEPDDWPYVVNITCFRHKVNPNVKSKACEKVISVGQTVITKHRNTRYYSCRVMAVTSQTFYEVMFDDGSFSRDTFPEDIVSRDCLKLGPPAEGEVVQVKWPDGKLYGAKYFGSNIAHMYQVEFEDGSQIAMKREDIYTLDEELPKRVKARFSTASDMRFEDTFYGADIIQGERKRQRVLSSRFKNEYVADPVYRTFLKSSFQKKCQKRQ

**Q.** Which results are given for `CCC(Sc1nc(N)c(NC(=O)c2ccc(Br)o2)c(O)n1)C(=O)O` (stereo not given)?
**A.** AC50 [1]: 17.5 µM (active); AC50 [2]: 5.06 µM (active)

**Q.** For `Cc1cc(C)n2cc(CSc3ncccc3C(=O)O)nc2n1`, which AC50 [3] is on record?
**A.** Its AC50 is 10.8 µM (active).

**Q.** And the AC50 [4]?
**A.** Its AC50 is 6.59 µM (active).

**Q.** And the AC50 [5]?
**A.** Its AC50 is 57.7 µM (active).

**Q.** Which AC50 [6] does the source give for `Cc1ccc(-n2c(C)c([N+](=O)[O-])c3ccc(O)cc32)cc1` here?
**A.** The AC50 was < 0.068 µM (active).

**Q.** And the IC50 [7]?
**A.** The IC50 was 1.05 µM (active).

**Q.** What about the IC50 [8] of the same molecule?
**A.** The IC50 was 1.18 µM (active).

**Q.** And the IC50 [9]?
**A.** Its IC50 is > 20 µM (inactive).

**Q.** What about the EC50 [10] of the same molecule?
**A.** The EC50 was > 20 µM (inactive).

**Q.** What about the EC50 [11] of the same molecule?
**A.** The EC50 was 16 µM (active).

**Q.** What about the IC50 [12] of the same molecule?
**A.** Its IC50 is > 20 µM (inactive).

**Q.** Which results are given for `c1cc(CSc2nnc(-c3ccc4c(c3)OCO4)o2)ccn1`?
**A.** AC50 [13]: > 35 µM (active); AC50 [14]: > 35 µM (active)

**Q.** Which results are given for `CCCNC(=O)Cn1nc(-c2ccccc2)c2cc(Cl)ccc21`?
**A.** AC50 [15]: 28.9 µM (active); AC50 [16]: 83.4 µM (active)

**Q.** With `O=C(CC1C(=O)N(Cc2ccccc2)C(=S)N1CCN1CCOCC1)Nc1ccc(F)cc1` (stereo not given) as the molecule, how does the EC50 [17] read?
**A.** Its EC50 is > 260 µM (inactive).

**Q.** What about the IC50 [18] of the same molecule?
**A.** Its IC50 is > 79.4 µM (inactive).

**Q.** And the IC50 [19]?
**A.** Its IC50 is > 79.4 µM (inactive).

**Q.** What about the IC50 [20] of the same molecule?
**A.** The IC50 was > 79.4 µM (inactive).

**Q.** For `O=C(Nc1ccccc1)c1ccccc1Br`, which EC50 [21] is on record?
**A.** Its EC50 is 1.97 µM (active).

**Q.** And the AC50 [22]?
**A.** Its AC50 is 5.98 µM (active).

**Q.** Which AC50 [23] does the source give for `CCCCCCN1C=CC=C/C1=C\C=C(C#N)C#N` here?
**A.** Its AC50 is 44.1 µM (active).

**Q.** Which EC50 [24] does the source give for `CCOP1(=O)OCC2OC(n3cnc4c(N)ncnc43)C(O)C2O1` (stereo not given) here?
**A.** Its EC50 is 2.68 µM (active).

**Q.** What about the EC50 [25] of the same molecule?
**A.** The EC50 was 3.75 µM (active).
